Where two headings read alike, the source gives them in different places. One block for each compound: values may come before it.
Assays:
[1] = Plasma concentration after intravenous administration in rat in the presence of CYP 3A4 inhibitor; type: in vivo; conditions: male SD rats, test compound 3 mg/kg intravenously; for AUC increase in the presence of ketoconazole versus absence: ketoconazole 50 mg/kg intraperitoneally; for AUC at 4 h: rat, in vivo, iv, 3 mg/kg
Protocol: Ketoconazole (50 mg/kg), an inhibitor against CYP 3A4, was intraperitoneally administered to male SD rats. One hour thereafter, the test compound (3 mg/kg) was intravenously administered. After 2, 5, 15, 30, 60, 120 and 240 minutes from the administration of the test compound, blood was collected from the rat jugular vein and centrifuged at 3,000 rpm for 10 minutes to obtain plasma. To 150 µL of the resulting plasma were added 5 ng of 2-[4-[4-(2-methoxyphenyl)-1-piperazinyl]butylamino]-5-ethoxycarbonyl-4,6-dimethylpyrimidine trihydrochloride as an internal standard, proteins were removed therefrom using ethanol and a plasma concentration of the test compound was measured by high-performance liquid chromatography. From the resulting plasma concentration of the test compound, the area under the curve of plasma concentration vs. time (AUC, µg·min/mL) was calculated.

[2] = system: CYP 3A4; experiment: Metabolic reaction in pooled human liver microsome with or without the CYP 3A4 inhibitor ketoconazole; type: in vitro ADME; conditions: 1 µmol/L test compound, 37°C, after 60 minutes; for Residual rate (%) Ketoconazole (+): ketoconazole 1 µmol/L; for Residual rate (%) Ketoconazole (-): without ketoconazole
Description: Metabolic reaction of a test compound in pooled human liver microsome (Zenotec) in the presence of a specific inhibitor for each CYP molecular species was investigated and the CYP molecular species participating in the metabolism was estimated from the effect of each inhibitor.
The following inhibitors were used as the specific inhibitors for CYP molecular species:
A mixed solution containing 100 mmol/L of a phosphate buffer (pH 7.4), 0.05 mmol/L disodium ethylenediaminetetraacetate, 5 mmol /L magnesium chloride, 1 µmol/L of a test compound, 0.2 mg/L of human liver microsome (8 mg/L only for the measurement of a metabolism inhibiting rate by CYP 2C19) and each inhibitor (each of the numerals being the final concentration) was pre-incubated at 37°C, and then 2 mmol/L NADPH was added thereto to start the reaction. Immediately thereafter and after 60 minutes, 100 µL. of the sample was collected. The collected sample was immediately added to 2 mL of diethyl ether containing 400 µL of distilled water and 0.1 µg/L of an internal standard substance, followed by stirring, and the reaction was stopped. After a centrifugal treatment (2,000 rpm for 3 minutes), diethyl ether which was an upper layer was collected and dried in vacuo. The residue was dissolved in 150 µL of 0.01% TFA-80% acetonitrile and 40 µL thereof was subjected to a measurement. In this test, no quantitative determination was conducted but the residual rate to the concentration of the compound immediately after starting the reaction was determined from the area ratio in liquid chromatography/tandem mass analysis (LC/MS/MS) chromatogram.

[3] = system: parent cells thereof (LLC-PK 1); experiment: Membrane permeability of parent cells; type: in vitro ADME; conditions: PK 1 cells, CsA (-), compound 10 µM
Protocol: (§1) Human MDR1 expressed cells (LLC-GA-5-COL 150) and parent cells thereof (LLC-PK 1) were incubated until arriving confluent in a 12-well transwell plate to prepare a single-layer membrane. Compound 75(54) was adjusted to 10 µM using a buffer for the measurement (M 199, 26.2 mM NaHCO3, 10% FBS, 0.03% L-glutamine; pH 7.4). In measuring the membrane permeability from lumen to blood vessel, the drug solution was loaded to the lumen while, in measuring the membrane permeability from blood vessel to lumen, it was loaded to the blood vessel and incubation was carried out under conditions at 37°C, 5% CO2 and relative humidity of 90%. After a certain period, the sample solution was collected and, in order to keep each volume, a buffer for the measurement was supplemented to an extent of the collected volume. Similarly, membrane permeability of Compound 75(54) was observed as well in the presence of cyclosporine A (abbreviated as CsA; final concentration: 10 µM) which is an inhibitor for P-gp. The measurement was carried out 3 times. All samples were evaluated by means of LS/MS/MS.

[4] = Plasma concentration upon oral administration to rats in the presence of CYP 3A4 inhibitor; type: in vivo; conditions: male SD rats, test compound 30 mg/kg orally, ketoconazole 50 mg/kg intraperitoneally one hour before
Protocol: Ketoconazole (50 mg/kg), a CYP 3A4 inhibitor, was intraperitoneally administered to male SD rats. One hour thereafter, 30 mg/kg of the test compound was orally administered. After 15, 30, 60, 120, 240 and 360 minutes from administration of the test compound, blood was collected from the rat jugular vein and centrifuged at 3,000 rpm for 10 minutes to give plasma. To 150 µL of the resulting plasma were added 5 ng of 2-[4-[4-(2-methoxyphenyl)-1-piperazinyl]butyl-amino]-5-ethoxycarbonyl-4,6-dimethylpyrimidine trihydrochloride, proteins were removed therefrom using ethanol and plasma concentration of the test compound was measured by high-performance liquid chromatography. From the concentration of the test compound in the resulting plasma, the area under curve of plasma concentration vs. time (AUC, µg•min/mL) was calculated.

[5] = system: Human MDR1 expressed cells (LLC-GA-5-COL 150); experiment: Membrane permeability of P-gp expression cells; type: in vitro ADME; conditions: COL 150 cells, CsA (-), compound 10 µM
Protocol: as §1

[6] = system: Caco-2 cells; experiment: Permeability of Caco-2 in the presence of P-gp inhibitor; type: in vitro ADME; conditions: drug 10 µM
Protocol: Caco-2 cells were incubated in a 12-well transwell place on a collagen-coated porous polycarbonate membrane until arriving confluent to prepare a single-layer membrane of Caco-2 cells. The single-layer membrane was preincubated for 30 minutes in a buffer for the measurement (a Hanks buffer containing 10 mM HEPES and 15 mM glucose; pH 7.0 ± 0.2) to which d-α-tocopheryl polyethylene glycol 1000 succinate, a P-gp inhibitor, was added. The drug concentration was adjusted to 10 µM by a buffer for the measurement. In measuring the membrane permeability from lumen to blood vessel, the drug solution was loaded to the lumen while, in measuring the membrane permeability from blood vessel to lumen, it was loaded to the blood vessel and incubation was carried out under conditions at 37°C, 5% CO2 and relative humidity of 90%. After 1 and 2 hours from the administration of the drug, 200 µL of the buffer for the measurement containing the drug solution were recovered and substituted with a new buffer for the measurement. The measurement was carried out 2 times. Membrane permeability in a cell-free state was measured and used as a blank. As a control, permeability of Lucifer Yellow was measured. All samples were evaluated by LC/MS. A permeation coefficient (Papp) was calculated according to the following equation. Papp = (dc / dt) • Vr / (A • C0 ) [formula]
In the equation, dc/dt is a permeation rate after lag time; Vr is a volume of the solution at the side of a donor; A is a surface area; and C0 is the initial concentration of the solution at the side of the donor.

[7] = Plasma concentration upon oral administration to rats in the presence of an HIV protease inhibitor; type: in vivo; conditions: male SD rats
Protocol: Amprenavir, nelfinavir, ritonavir or saquinavir (10 mg/kg) which is an HIV protease inhibitor and 10 mg/kg of the test compound were orally administered to male SD rats at the same time. After 15, 30, 60, 120, 240 and 360 minutes from the administration of the test compound, blood was collected from the rat jugular vein and centrifuged at 3,000 rpm for 10 minutes to give plasma. To 200 µL of the resulting plasma were added 50 ng of (3S)-1-butyl-2,5-dioxo-3-(2-methylpropyl)-9-)4-phenyloxyphenylmethyl)-1,4,9-triazaspiro[5.5]undecane as an internal standard. To this were added 300 µL of distilled water and 2,000 µL of diethyl ether, followed by well stirring, and the diethyl ether layer recovered therefrom was dried in vacuo. The dried substance was dissolved in 150 µL of a 50% acetonitrile solution containing 0.005% trifluoroacetic acid and subjected to a liquid chromatography/tandem mass analysis (LC/MS/MS) method to measure a plasma concentration of the test compound. From the concentration of the test compound in the resulting plasma, the area under curve of plasma concentration vs. time (AUC, µg·min/mL) was calculated.

AUC increase in the presence of ketoconazole versus absence [1]: about 4 times | AUC at 4 h ([1]; ketoconazole 50 mg/kg intraperitoneally one hour before, read-out: AUC in the presence of ketoconazole (converted)): 4350 ng·h/mL | AUC at 4 h ([1]; no ketoconazole, read-out: AUC in the absence of ketoconazole (converted)): 1020 ng·h/mL | Residual rate (%) Ketoconazole (+) [2]: 89.1% | Residual rate (%) Ketoconazole (-) [2]: 32.1%
SMILES: CCCCN1C(=O)C(CC(C)C)NC(=O)C12CCN(Cc1c(C)nn(-c3ccccc3)c1C)CC2 (stereo not shown) [Compound 3(1)]

Residual rate (%) Ketoconazole (+) [2]: 104.0% | Residual rate (%) Ketoconazole (-) [2]: 28.2%
SMILES: CCCCN1C(=O)[C@H](CC2CCCCC2)NC(=O)C12CCN(Cc1ccc(Oc3ccc(C(=O)O)cc3)cc1)CC2 [Compound 40(70), (3S)-1-butyl-2,5-dioxo-3-cyclohexylmethyl-9-(4-(4-carboxyphenyloxy)phenylmethyl)-1,4,9-triazaspiro[5.5]undecane]

Residual rate (%) Ketoconazole (+) [2]: 114.4% | Residual rate (%) Ketoconazole (-) [2]: 19.4%
SMILES: CCCCN1C(=O)[C@@H]([C@H](O)C2CCCCC2)NC(=O)C12CCN(Cc1c(C)nn(-c3ccc(C(=O)NC)cc3)c1C)CC2 [Compound 75(53), (3R)-1-butyl-2,5-dioxo-3-((1R)-1-hydroxy-1-cyctohexylmethyl)-9-(3,5-dimethyl-1-(4-methylaminocarbonylphenyl)pyrazol-4-ylmethyl)-1,4,9-triazaspiro[5.5]undecane]

SMILES: CCCCN1C(=O)[C@@H]([C@H](O)C2CCCCC2)NC(=O)C12CCN(Cc1ccc(Oc3ccc(C(=O)O)cc3)cc1)CC2 [Compound 75(54), (3R)-1-butyl-2,5-dioxo-3-((1R)-1-hydroxy-1-cyclohexylmethyl)-9-(4-(4-carboxyphenyloxy)phenylmethyl)-1,4,9-triazaspiro[5.5]undecane]
AUC increase in the presence of ketoconazole versus absence [1]: about 3 times | Permeability From blood vessel to lumen [3]: 18.8 µL/cm^2/hr | Permeability From lumen to blood vessel [3]: 35.3 µL/cm^2/hr | Residual rate (%) Ketoconazole (+) [2]: 95.3% | Residual rate (%) Ketoconazole (-) [2]: 34.4% | AUC increase in the presence of ketoconazole versus absence [4]: 10 times | Permeability From blood vessel to lumen [5]: 34.3 µL/cm^2/hr | Permeability From lumen to blood vessel [5]: 2.06 µL/cm^2/hr | Permeation Coefficient From blood vessel to lumen ([6]; Caco-2, 0.025% TPGS (+)): 13 cm/s | Permeation Coefficient From lumen to blood vessel ([6]; Caco-2, 0.025% TPGS (+)): 10.5 cm/s | Permeation Coefficient From blood vessel to lumen ([6]; Caco-2, 0.025% TPGS (-)): 32.4 cm/s | Permeation Coefficient From lumen to blood vessel ([6]; Caco-2, 0.025% TPGS (-)): 3.42 cm/s | AUC increase in the presence of amprenavir versus absence ([7]; test compound 10 mg/kg and amprenavir 10 mg/kg orally at the same time): 3.7 times | AUC increase in the presence of nelfinavir versus absence ([7]; test compound 10 mg/kg and nelfinavir 10 mg/kg orally at the same time): 3.4 times | AUC increase in the presence of ritonavir versus absence ([7]; test compound 10 mg/kg and ritonavir 10 mg/kg orally at the same time): 7.7 times | AUC increase in the presence of saquinavir versus absence ([7]; test compound 10 mg/kg and saquinavir 10 mg/kg orally at the same time): 1.7 times
